Data as given in patent US7687476B2, “Specific inhibitors of acute and chronic inflammation” (priority 2001, dated 2010).
“Also recorded” adds a separate entry of the source.

Columns and labels:
[1] = system: L-cells transfected with E-selectin; assay: static adhesion of neutrophils to L-cells transfected with E-selectin (myeloperoxidase readout); format: cell-based, human; settings: for adhesion of neutrophils to E-selectin transfected L-cells: preincubation 45 min, adhesion 20 min at 37° C., static assay; for order of potency of lead compounds: proposed from the adhesion experiments
Description: L-cells permanently transfected with full-length E-selectin by electroporation. Human neutrophils were isolated from EDTA whole blood by density centrifugation. Purity and total number were determined by standard haematology instruments, L-cells were grown in 96-well microtiter plates.
L-cells and neutrophils were pre-incubated with respective substances for 45 min at 37° C. Neutrophils were then allowed to adhere to L-cells in the presence of different substances for 20 min at 37° C. Non-adherent cells were removed by repeated washings and the number of adherent cells determined by measuring myeloperoxidase content. Since binding of neutrophils to selectin is calcium dependent, EGTA (which chelates calcium) was used as a negative control.
L-cells and neutrophils were preincubated with decreasing concentrations of maltose, fucose, and thymidine (1 mM, 10 μM, 0.1 μM, and 1 nM) for 45 min at 37° C. Neutrophils were then allowed to adhere to L-cells in the presence of respective substances for 20 min at 37° C. Non-adherent cells were removed by repeated washings and the number of adherent cells determined by measuring myeloperoxidase content.
L-cells were grown in 96-well microtiter plates. L-cells and neutrophils were preincubated with decreasing concentrations of EGTA (10 mM, 1 mM, 0.1 mM, 10 μM) for 45 min at 37° C. Neutrophils were then allowed to adhere to L-cells in the presence of EGTA for 20 min at 37° C. Non-adherent cells were removed by repeated washings and the number of adherent cells was determined by measuring myeloperoxidase content.

[2] = system: Colo 201 cells / L-cells transfected with E-selectin; assay: adhesion of colon cancer cells Colo 201 to L-cells transfected with E-selectin; format: cell-based; settings: E-selectin transfected L-cells (text of b26 says HUVEC)
Description: Although protein ligands have been characterised for the selectins, they recognise a number of carbohydrate and non-carbohydrate ligands. The hypothesis is that these compounds should block E-selectin-SLe^x interaction. To confirm this it was also tested if these substances can block adhesion of Colo 201 cells to L-cells.

TNF stimulated HUVEC = assay: neutrophil adhesion to TNF stimulated HUVEC; format: cell-based, human; settings: for adhesion of neutrophils to TNF stimulated / activated HUVEC (in words) / inhibition of adhesion of neutrophils to TNF stimulated HUVEC: HUVEC stimulated with TNF 4 h; for inhibition of adhesion of neutrophils to TNF stimulated HUVEC: neutrophils preincubated 30 min at 37° C.
Description: To further extend the finding from L-cells the binding of neutrophils to TNF activated endothelium (HUVEC) was studied.
Endothelial cells were grown in 96-well microtiter plates to confluence. They were stimulated with TNF for 4 h at 37° C. Isolated neutrophils were incubated for 30 min at 37° C. with respective substances. The endothelial cells were washed after 4 h and 2×10^5 neutrophils were added to each well and the cells were allowed to adhere in the presence of the respective substances.

E-selectin = assay: cell-ELISA of surface expression of E-selectin on stimulated endothelial cells; format: cell-based, human; settings: simultaneous incubation of endothelium with different concentrations, 4 h at 37° C.
Description: The substances mentioned above should block the interaction of E-selectin with it's ligand and should not have any effect on cytokine induced up-regulation of adhesion molecules. A cell-ELISA was performed to assess the surface expression of adhesion molecules. Endothelial cells were grown in microtiter plates, stimulated with TNF or IL-1 with or without respective substances for 4 h at 37° C. After stimulation the cells were washed and fixed with formaldehyde. A cell-ELISA was performed in analogy to regular ELISA using primary and secondary antibodies.

myeloperoxidase = molecular target: T1, myeloperoxidase (Homo sapiens, UniProt P05164); assay: effect on neutrophil myeloperoxidase activity; format: cell-based; settings: neutrophils, 100 μM to 10 nM, 2 hours at 37° C.
T1 construct: endogenous in cells; host or cells: human neutrophils isolated from EDTA whole blood
T1 sequence (P05164 279-745 limits assumed): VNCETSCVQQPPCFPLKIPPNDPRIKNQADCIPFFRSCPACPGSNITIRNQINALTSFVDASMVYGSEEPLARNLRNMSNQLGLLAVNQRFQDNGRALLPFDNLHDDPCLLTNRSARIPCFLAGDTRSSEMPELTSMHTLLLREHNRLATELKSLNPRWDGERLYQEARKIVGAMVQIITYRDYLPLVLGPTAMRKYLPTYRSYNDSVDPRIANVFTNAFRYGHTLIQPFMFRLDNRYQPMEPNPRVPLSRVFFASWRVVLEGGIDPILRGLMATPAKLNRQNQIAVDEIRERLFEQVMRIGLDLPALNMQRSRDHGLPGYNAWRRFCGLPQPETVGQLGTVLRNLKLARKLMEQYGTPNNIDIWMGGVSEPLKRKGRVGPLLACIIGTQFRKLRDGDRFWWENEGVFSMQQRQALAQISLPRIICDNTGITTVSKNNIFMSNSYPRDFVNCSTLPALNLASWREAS
T1 sequence (P05164 165-273 limits assumed): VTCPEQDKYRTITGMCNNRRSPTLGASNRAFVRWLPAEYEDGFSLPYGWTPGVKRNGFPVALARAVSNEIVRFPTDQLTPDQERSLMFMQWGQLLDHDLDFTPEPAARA
Description: Since the number of adherent neutrophils are calculated by measuring neutrophil myeloperoxidase activity, it could be argued that these substances could have a direct effect on myeloperoxidase activity and thus create a methodological artifact. Neutrophils were incubated with different concentrations of uridine, isomaltitol, and 4-thiouridine (100 μM, 10 μM, 1 μM, 100 nM, 10 nM) for 2 hours at 37° C.

| SMILES | adhesion of neutrophils to E-selectin transfected L-cells [1] | adhesion of Colo 201 cells [2] | adhesion of neutrophils to TNF stimulated / activated HUVEC (in words) (TNF stimulated HUVEC) | TNF induced up-regulation of E-selectin (E-selectin) | myeloperoxidase activity (myeloperoxidase) | order of potency of lead compounds [1] | inhibition of adhesion of neutrophils to TNF stimulated HUVEC (TNF stimulated HUVEC) | concentration level at which the maximal effect on neutrophil adhesion to HUVEC occurs (TNF stimulated HUVEC; TNF stimulated HUVEC) |
| --- | --- | --- | --- | --- | --- | --- | --- | --- |
| Cc1cn([C@H]2C[C@H](O)[C@@H](CO)O2)c(=O)[nH]c1=O [thymidine, reference compound] | did not affect the adhesion of neutrophils | – | – | – | – | – | – | – |
| O=C(O)CN(CCOCCOCCN(CC(=O)O)CC(=O)O)CC(=O)O [EGTA, reference compound] | consistently blocks adhesion of neutrophils; also recorded: dose dependent inhibition of neutrophils adhesion to L-cells | blocked adhesion of Colo 201 cells | blocked adhesion of neutrophils; also recorded: dose dependent inhibition of neutrophils adhesion to activated HUVEC | – | – | – | – | – |
| O=c1[nH]c(=S)ccn1[C@@H]1O[C@H](CO)[C@@H](O)[C@H]1O [4-thiouridine] | could block adhesion of neutrophils | – | dose dependent inhibition | did not affect TNF induced up-regulation of E-selectin | do not affect myeloperoxidase activity | 4-thiouridine>isomaltitol>uridine | 60% | micromolar levels |
| OC[C@H]1O[C@H](O[C@H]2[C@H](O)[C@@H](O)C(O)O[C@@H]2CO)[C@H](O)[C@@H](O)[C@@H]1O (mixture of isomers) [Maltose, maltose, reference compound] | did not affect the adhesion of neutrophils | – | – | – | – | – | – | – |
| OC[C@H](O)[C@@H](O)[C@H](O)[C@H](O)CO[C@H]1O[C@H](CO)[C@@H](O)[C@H](O)[C@H]1O [isomaltitol] | could block adhesion of neutrophils | – | – | – | do not affect myeloperoxidase activity | 4-thiouridine>isomaltitol>uridine | roughly 30% | – |
| C[C@H](O)[C@@H](O)[C@@H](O)[C@H](O)C=O [fucose, reference compound] | did not affect the adhesion of neutrophils | – | – | – | – | – | – | – |
| O=c1ccn([C@@H]2O[C@H](CO)[C@@H](O)[C@H]2O)c(=O)[nH]1 [uridine] | could block adhesion of neutrophils | – | – | – | do not affect myeloperoxidase activity | 4-thiouridine>isomaltitol>uridine | – | – |
